Key:
[1] = test system: cardiac beta-adrenoceptors; test: Experiment B: blockade of isoprenaline induced heart rate response, i.v. infusion of test compound; assay type: in vivo; settings: i.v. infusion 12 minutes per dose, isoprenaline bolus 10 minutes after start, reserpine pretreated cats
Protocol: (§1) A bilateral vagotomy was performed in the neck. […] The perfusion pressure (PP) was recorded.
(§2) An isoprenaline bolus dose which gave a heart rate response which was about 80% of the maximal response was then tested out. Usually this dose of isoprenaline was 0.4 µmol/kg.
(§3) The test compound was then infused intravenously in increasing doses. Each dose was given during 12 minutes with an interval of 18 minutes between doses.
(§4) The control dose of isoprenaline was injected 10 minutes after start of each infusion of the test compound. The dose of the test compound was increased logarithmically until total blockade of the isoprenaline responses was achieved.
(§5) The inhibitory effect of each dose of the test compound was expressed as per cent blockade according to the formula: [formula]
(§6) Per cent blockade was then plotted against log dose of the blocker and the ED:50-value was interpolated (cf. above). The ED:50 for heart rate blockade and ED:50 for blockade of the vaso- dilatation could then be compared and the selectivity for the compound estimated. Intrinsic sympa- thomimetic activity was evaluated as the maximal heart rate elevation during infusion of the test compound.

[2] = test system: cardiac beta-adrenoceptors; test: Experiment A: blockade of isoprenaline induced heart rate response, i.v. bolus of test compound, reserpinized anaesthetized cat; assay type: in vivo; settings: i.v. bolus injection during isoprenaline infusion, reserpine pretreated, pentobarbital anaesthetized, vagotomized cats
Protocol: as §1
For each dose of the test compound the peak reduction of the isoprenaline heart rate response was expressed as per cent blockade according to the formula: [formula]
(§7) Per cent blockade (for each dose) was then plotted against log dose of the test compound. The ED:50 value (i.e. the dose which produced half maximal blockade) was interpolated.

[3] = test system: vascular beta-adrenoceptors; test: Experiment B: blockade of isoprenaline induced vasodilatation, i.v. infusion of test compound; assay type: in vivo; settings: i.v. infusion 12 minutes per dose, isoprenaline bolus 10 minutes after start, reserpine pretreated cats
Protocol: as §1, §2, §3, §4, §5, §6

[4] = test system: vascular beta-adrenoceptors; test: Experiment A: blockade of isoprenaline induced vasodilatation (hind leg perfusion pressure), i.v. bolus of test compound; assay type: in vivo; settings: i.v. bolus injection during isoprenaline infusion, reserpine pretreated cats
Protocol: A bilateral vagotomy was performed in the neck. […] The perfusion pressure (PP) was recorded. […]
as §7

in vivo = settings: cat, iv
Protocol: (§8) All compounds were thereby tested in two different experimental models but with the same species, premedication and preparation. Cats (males and females weighing 2.5-3.5 kg) were pretreated with reserpine (5 mg/kg bodyweight administered intraperitoneally) about 16 hours before the experiments. The animals were pretreated with reserpine in order to eliminate the endogenous sympathetic control of heart rate and vascular smooth muscle tone. The cats were anaesthetized with pentobarbital (30 mg/kg bodyweight administered i.p.) and artificially ventilated with room air. A bilateral vagotomy was performed in the neck. Blood pressure was obtained from a cannulated carotid artery and heart rate was recorded from a cardiotachometer, triggered by the oscillations in blood pressure. The femoral artery of one hind leg was cannulated in both directions. Blood taken from the proximal part was pumped, at a constant flowrate, back into the distal part of the artery by means of a roller pump (Watson-Marlow). The perfusion pressure (PP) was recorded. Changes in PP indicated changes in the peripheral vascular resistance of the leg.
(§9) The maximal heart rate and vasodilator responses to isoprenaline were established by injecting a high i.v. bolus dose of isoprenaline (2.0 µmol/kg). An isoprenaline infusion rate was then established which gave a heart rate response (at steady state) which was about 80% of the maximal heart rate response to isoprenaline. Usually this dose of isoprenaline was 0.25 µmol/kg x min. The vasodilator response to this dose of isoprenaline was also approximately 80% of maximal. The isoprenaline dose was then infused during periods of 20 minutes with an interval of 20 minutes between the infusion periods.
(§10) The test compound was administered as an intravenous bolus injection seven minutes after start of each isoprenaline infusion. The dose of the test compound was increased until total blockade of the isoprenaline responses was achieved.
(§11) The plasma half life was estimated by the method of Levy (Nagashima, R., O'Reilly, R. A. and Levy, G., Clin. Pharmacol. Ther., 10 (1969) 22). The time from the peak inhibitory effect of each dose until 50% recovery was determined and plotted against log dose of the compound. The slope of the line obtained was calculated with linear regression. The slope equals 2.303/KE where Ke is the rate constant for elimination. The plasma half life (t 1/2) was then calculated according to the relation t 1/2 = 0.693/KE.

[5] = Experiment A: plasma half life estimated by the method of Levy from time to 50% recovery of the blockade; settings: cat, iv
Protocol: as §8, §9, §10, §11

With `COC(=O)CCc1ccc(OCC(O)CNC(C)C)cc1` (centres unmarked) [Ex. 1, methyl 3-[4-(2-hydroxy-3.-isopropylaminopropoxy)phenyl]propanoate] as the compound, how does the “Blockade of isoprenaline induced effects Heart rate ED:50” value [1] read?
The value was 3.6 µmol/kg/min.

And the “Blockade of isoprenaline induced effects Heart rate ED:50” value [2]?
Its value is 2.3 µmol/kg.

What about the “Blockade of isoprenaline induced effects Vasodilatation ED:50” value [3] of the same compound?
Its value is over 25.6 µmol/kg/min.

What about the “Blockade of isoprenaline induced effects Vasodilatation ED:50” value [4] of the same compound?
Its value is about 32.0 µmol/kg.

What about the half-life (in vivo) of the same compound?
The half-life was 1 min.

With `CCOC(=O)CCc1ccc(OCC(O)CNC(C)C)cc1` (centres unmarked) [Ex. 2, Ethyl 3-[4-(2-hydroxy-3-isopropylaminopropoxy)-phenyl]propanoate] as the compound, how does the “Blockade of isoprenaline induced effects Heart rate ED:50” value [1] read?
Its value is 2.1 µmol/kg/min.

And the “Blockade of isoprenaline induced effects Heart rate ED:50” value [2]?
Its value is 4.7 µmol/kg.

What about the half-life [5] of the same compound?
The half-life was 1 min.

What about the “Blockade of isoprenaline induced effects Vasodilatation ED:50” value [3] of the same compound?
The value was 12.0 µmol/kg/min.

What about the “Blockade of isoprenaline induced effects Vasodilatation ED:50” value [4] of the same compound?
Its value is over 51.2 µmol/kg.

With `COCCOC(=O)CCc1ccc(OCC(O)CNC(C)C)cc1` (centres unmarked) [Ex. 3, 2-Methoxyethyl 3-[4-(2-hydroxy-3-isopropylaminopropoxy)phenyl]propanoate] as the compound, how does the “Blockade of isoprenaline induced effects Heart rate ED:50” value [1] read?
The value was 1.3 µmol/kg/min.

And the “Blockade of isoprenaline induced effects Heart rate ED:50” value [2]?
The value was 26.0 µmol/kg.

And the half-life [5]?
Its half-life is 1.5 min.

And the “Blockade of isoprenaline induced effects Vasodilatation ED:50” value [3]?
Its value is over 25.6 µmol/kg/min.

And the “Blockade of isoprenaline induced effects Vasodilatation ED:50” value [4]?
Its value is about 30.0 µmol/kg.

For `COCCOC(=O)CCCc1ccc(OCC(O)CNC(C)C)cc1` (centres unmarked) [Ex. 4, 2-Methoxyethyl 4-[4-(2-hydroxy-3-isopropylaminopropoxy)phenyl]butanoate], which “Blockade of isoprenaline induced effects Heart rate ED:50” value [1] is on record?
Its value is 1.1 µmol/kg/min.

What about the “Blockade of isoprenaline induced effects Heart rate ED:50” value [2] of the same compound?
The value was 3.0 µmol/kg.

And the half-life [5]?
Its half-life is 1.7 min.

And the “Blockade of isoprenaline induced effects Vasodilatation ED:50” value [3]?
Its value is 2.3 µmol/kg/min.

What about the “Blockade of isoprenaline induced effects Vasodilatation ED:50” value [4] of the same compound?
The value was 51.8 µmol/kg.

For `CCCOC(=O)CCc1ccc(OCC(O)CNC(C)C)cc1` (centres unmarked) [Ex. 5, Propyl 3-[4-(2-hydroxy-3-isopropylaminopropoxy)phenyl]propanoate], which “Blockade of isoprenaline induced effects Heart rate ED:50” value [1] is on record?
Its value is 9.0 µmol/kg/min.

What about the “Blockade of isoprenaline induced effects Heart rate ED:50” value [2] of the same compound?
The value was about 20.0 µmol/kg.

What about the half-life [5] of the same compound?
The half-life was 0.3 min.

What about the “Blockade of isoprenaline induced effects Vasodilatation ED:50” value [3] of the same compound?
The value was over 25.6 µmol/kg/min.

What about the “Blockade of isoprenaline induced effects Vasodilatation ED:50” value [4] of the same compound?
The value was over 51.2 µmol/kg.

What does the source list for `CC(C)NCC(O)COc1ccc(CCC(=O)OC(C)C)cc1` (centres unmarked) [Ex. 6, Isopropyl 3-[4-(2-hydroxy-3-isopropylaminopropoxy)phenyl]propanoate]?
Blockade of isoprenaline induced effects Heart rate ED:50 [1]: 0.9 µmol/kg/min; Blockade of isoprenaline induced effects Heart rate ED:50 [2]: 1.7 µmol/kg; half-life [5]: 3.5 min; Blockade of isoprenaline induced effects Vasodilatation ED:50 [3]: >6.4 µmol/kg/min; Blockade of isoprenaline induced effects Vasodilatation ED:50 [4]: >12.8 µmol/kg

Which results are given for `CCOC(=O)CCCc1ccc(OCC(O)CNC(C)C)cc1` (centres unmarked) [Ex. 7, Ethyl 4-[4-(2-hydroxy-3-isopropylaminopropoxy)phenyl]butanoate]?
Blockade of isoprenaline induced effects Heart rate ED:50 [1]: 1.5 µmol/kg/min; Blockade of isoprenaline induced effects Heart rate ED:50 [2]: 1.8 µmol/kg; half-life [5]: 3.3 min; Blockade of isoprenaline induced effects Vasodilatation ED:50 [3]: >6.4 µmol/kg/min; Blockade of isoprenaline induced effects Vasodilatation ED:50 [4]: >51.0 µmol/kg

With `CCOC(=O)CCCc1ccc(OCC(O)CNC(C)C)c(Br)c1` (centres unmarked) [Ex. 8, Ethyl 4-[3-bromo-4-(2-hydroxy-3-isopropylaminopropoxy)phenyl]butanoate] as the compound, how does the “Blockade of isoprenaline induced effects Heart rate ED:50” value [1] read?
The value was 1.2 µmol/kg/min.

And the “Blockade of isoprenaline induced effects Heart rate ED:50” value [2]?
Its value is 2.1 µmol/kg.

What about the half-life [5] of the same compound?
Its half-life is about 8 min.

What about the “Blockade of isoprenaline induced effects Vasodilatation ED:50” value [3] of the same compound?
The value was over 6.4 µmol/kg/min.

And the “Blockade of isoprenaline induced effects Vasodilatation ED:50” value [4]?
Its value is over 17.0 µmol/kg.

For `COC(=O)CCc1ccc(OCC(O)CNC(C)C)c(OC)c1` (centres unmarked) [Ex. 15, methyl 3-[4-(2-hydroxy-3-isopropylaminopropoxy)-3-methoxyphenyl]propanoate], which “Blockade of isoprenaline induced effects Heart rate ED:50” value [1] is on record?
Its value is 1.9 µmol/kg/min.

And the “Blockade of isoprenaline induced effects Heart rate ED:50” value [2]?
Its value is 0.9 µmol/kg.

What about the half-life [5] of the same compound?
Its half-life is 1 min.

What about the “Blockade of isoprenaline induced effects Vasodilatation ED:50” value [3] of the same compound?
The value was 18.0 µmol/kg/min.

What about the “Blockade of isoprenaline induced effects Vasodilatation ED:50” value [4] of the same compound?
The value was about 20.0 µmol/kg.

Which results are given for `CCOC(=O)CCc1ccc(OCC(O)CNC(C)C)c(Br)c1` (centres unmarked) [Ex. 20, ethyl 3-[3-bromo-4-(2-hydroxy-3-isopropylaminopropoxy)phenyl]propanoate]?
Blockade of isoprenaline induced effects Heart rate ED:50 [1]: 1.2 µmol/kg/min; Blockade of isoprenaline induced effects Heart rate ED:50 [2]: 0.45 µmol/kg; half-life [5]: 2.2 min; Blockade of isoprenaline induced effects Vasodilatation ED:50 [3]: >6.4 µmol/kg/min; Blockade of isoprenaline induced effects Vasodilatation ED:50 [4]: >12.8 µmol/kg

With `CCOC(=O)CCc1ccc(OCC(O)CNC(C)C)c(OC)c1` (centres unmarked) [Ex. 21, ethyl 3-[4-(2-hydroxy-3-isopropylaminopropoxy)-3-methoxyphenyl]propanoate] as the compound, how does the “Blockade of isoprenaline induced effects Heart rate ED:50” value [1] read?
Its value is 2.05 µmol/kg/min.

What about the “Blockade of isoprenaline induced effects Heart rate ED:50” value [2] of the same compound?
Its value is 0.8 µmol/kg.

What about the half-life [5] of the same compound?
The half-life was 0.9 min.

And the “Blockade of isoprenaline induced effects Vasodilatation ED:50” value [3]?
The value was over 6.4 µmol/kg/min.

And the “Blockade of isoprenaline induced effects Vasodilatation ED:50” value [4]?
The value was over 52 µmol/kg.

For `CCOC(=O)CCc1ccc(OCC(O)CNC(C)C)c(OCC)c1` (centres unmarked) [Ex. 22, ethyl 3-[3-ethoxy-4-(2-hydroxy-3-isopropylaminopropoxy)phenyl]propanoate], which “Blockade of isoprenaline induced effects Heart rate ED:50” value [1] is on record?
The value was 0.6 µmol/kg/min.

And the “Blockade of isoprenaline induced effects Heart rate ED:50” value [2]?
Its value is 2.0 µmol/kg.

And the half-life [5]?
Its half-life is 0.9 min.

And the “Blockade of isoprenaline induced effects Vasodilatation ED:50” value [3]?
Its value is 0.8 µmol/kg/min.

What about the “Blockade of isoprenaline induced effects Vasodilatation ED:50” value [4] of the same compound?
Its value is over 52 µmol/kg.

Which results are given for `CCOC(=O)CCc1ccc(OCC(O)CNC(C)C)c(Cl)c1` (centres unmarked) [Ex. 23, ethyl 3-[3-chloro-4-(2-hydroxy-3-isopropylaminopropoxy)phenyl]propanoate]?
Blockade of isoprenaline induced effects Heart rate ED:50 [2]: 1.8 µmol/kg; half-life [5]: 1.8 min; Blockade of isoprenaline induced effects Vasodilatation ED:50 [4]: >52 µmol/kg

What does the source list for `COc1cc(CCC(=O)OC(C)C)ccc1OCC(O)CNC(C)C` (centres unmarked) [Ex. 24, isopropyl 3-[4-(2-hydroxy-3-isopropylaminopropoxy)-3-methoxyphenyl]propanoate]?
Blockade of isoprenaline induced effects Heart rate ED:50 [2]: 1.2 µmol/kg; half-life [5]: 2.1 min; Blockade of isoprenaline induced effects Vasodilatation ED:50 [4]: >12.8 µmol/kg

With `CCOC(=O)CCc1ccc(OCC(O)CNC(C)C)c(F)c1` (centres unmarked) [Ex. 25, ethyl 3-[3-fluoro-4-(2-hydroxy-3-isopropylaminopropoxy)phenyl]propanoate] as the compound, how does the “Blockade of isoprenaline induced effects Heart rate ED:50” value [1] read?
Its value is 2.1 µmol/kg/min.

What about the “Blockade of isoprenaline induced effects Heart rate ED:50” value [2] of the same compound?
Its value is 0.6 µmol/kg.

What about the half-life [5] of the same compound?
Its half-life is 0.9 min.

What about the “Blockade of isoprenaline induced effects Vasodilatation ED:50” value [3] of the same compound?
Its value is over 6.4 µmol/kg/min.

What about the “Blockade of isoprenaline induced effects Vasodilatation ED:50” value [4] of the same compound?
The value was over 12.8 µmol/kg.

— EP0041491B1, “New para-substituted 3-phenoxy-1-alkylamino-propanol-2-s having beta receptor blocking properties” (priority 1980, dated 1981)
